The compounds below were run against DYRK1A (Homo sapiens (Human), UniProt Q13627) (assay: DYRK1A Inhibition Assay). Details: Compounds of Formula (I); DYRK1A 1 nM, ATP 20 μM, Ser/Thr 18 peptide 2 μM, 90 minutes; read-out: DYRK1 IC50.
Format: biochemical
Procedure: DYRK1A—Invitrogen #PV4105
• Ser/Thr 18 peptide—Invitrogen #PR8227U • Phos-Ser/Thr 18 peptide—Invitrogen #PR8229U • Assay plate—PerkinElmer #6007279 • ATP—Sigma #A7699-5G • Development reagent A—Invitrogen #PR5194B • Development buffer—Invitrogen #PR4876B Compound preparation • 1. Test compounds were diluted to 1 mM in DMSO • 2. Stock was further diluted 3-fold using Echo platform • 3. 100 nL of DMSO into Columns 1 and 24 and 100 nL of compounds dilutions to Columns 2-23 in a plate.
• 1. Add 5 μL enzyme & substrate mixture to each well in Column 2-23 and A24-H24 wells of the 384-well assay plate; • 2. Add 5 μL 0% Phosphorylation control to A1-H1 and I24-P24 wells of the assay plate; • 3. Add 5 μL 100% Phosphorylation control to I1-P1 wells of the assay plate; • 4. Spin the assay plate (1000 rpm, 1 minute @23° C.); • 5. Incubate enzyme with compounds for 15 minutes at 23° C.; • 6. Add 5 μL ATP solution to each well of the assay plate; • 7. Spin the plate (1000 rpm, 1 minute @23° C.); • 8. Incubate the assay plate for 90 minutes at 23° C.; • 9. Add 10 μL Development reagent A to each well of the assay plate; • 10. Centrifuge the plate at 1000 rpm about 15 seconds and seal a film over assay plate. Incubate the assay plate for 30 minutes at 23° C. • 11. Read assay plates on Envision (see Tables A-D).
Final Compound Concentrations
• Assay buffer: 50 mM Hepes pH7.5, 10 mM MgCl2, 1 mM EDTA, 0.01% Brij-35 • DYRK1A: 1 nM • ATP: 20 μM • Ser/Thr 18 peptide: 2 μM • Reaction time: 90 minutes

`Cn1cc(-c2ccc3cnc4[nH]cc(-c5ccc(F)cc5)c4c3c2)cn1` [Compound 2, 1-(4-fluorophenyl)-8-(1-methyl-1H-pyrazol-4-yl)-3H-pyrrolo[2,3-c]isoquinoline] and `Fc1ccc(-c2c[nH]c3ncc4ccc(-c5cn[nH]c5)cc4c23)cc1` [Compound 3, 1-(4-fluorophenyl)-8-(1H-pyrazol-4-yl)-3H-pyrrolo[2,3-c]isoquinoline] fall in the same range of IC50: 10 to 100 nM for the first, 10 to 100 nM for the second.

First: OCc1ccc2c(cnc3[nH]cc(-c4ccc(F)cc4)c32)c1 [Compound 5]
Second: CN1CCN(C(=O)c2c[nH]c3ncc4ccc(-c5cccnc5)cc4c23)CC1 [Compound 10, (4-methylpiperazin-1-yl)(8-(pyridin-3-yl)-3H-pyrrolo[2,3-c]isoquinolin-1-yl)methanone]
The IC50 of the first is lower: 10 to 100 nM for the first, 100 to 1000 nM for the second. The first is the more potent here.

`Cn1cc(-c2ccc3cnc4[nH]ncc4c3c2)cn1` [Compound 7, 8-(1-methyl-1H-pyrazol-4-yl)-3H-pyrazolo[3,4-c]isoquinoline] and `Cn1cc(-c2ccc3cnc4[nH]c(C5CCNCC5)cc4c3c2)cn1` [Compound 39, 8-(1-methyl-1H-pyrazol-4-yl)-2-(piperidin-4-yl)-3H-pyrrolo[2,3-c]isoquinoline] cannot be ordered by IC50: 10 to 100 nM for the first, at most 10 nM for the second.

First: O=c1[nH]c2ncc3ccc(-c4cccnc4)cc3c2n1Cc1cccnc1 [Compound 11, 8-(pyridin-3-yl)-1-(pyridin-3-ylmethyl)-1,3-dihydro-2H-imidazo[4,5-c]isoquinolin-2-one]
Second: Cn1cc(-c2ccc3cnc4[nH]c(=O)n(C5CC(O)C5)c4c3c2)cn1 (stereo not shown) [Compound 21, 1-(3-hydroxycyclobutyl)-8-(1-methyl-1H-pyrazol-4-yl)-1,3-dihydro-2H-imidazo[4,5-c]isoquinolin-2-one]
The IC50 of the first is higher: 100 to 1000 nM for the first, 10 to 100 nM for the second.

`Cn1cc(-c2ccc3cnc4[nH]cc(C(=O)N5CCNCC5)c4c3c2)cn1` [Compound 12, (8-(1-methyl-1H-pyrazol-4-yl)-3H-pyrrolo[2,3-c]isoquinolin-1-yl)(piperazin-1-yl)methanone] and `Cn1cc(-c2ccc3cnc4[nH]cc(C5CCC(C(=O)N6CCNCC6)CC5)c4c3c2)cn1` (stereo not shown) [Compound 28, (4-(8-(1-methyl-1H-pyrazol-4-yl)-3H-pyrrolo[2,3-c]isoquinolin-1-yl)cyclohexyl)(piperazin-1-yl)methanone] cannot be ordered by IC50: 10 to 100 nM for the first, at most 10 nM for the second.

Compared with `COC1CC(n2c(=O)[nH]c3ncc4ccc(-c5cnn(C)c5)cc4c32)C1` (stereo not shown) [Compound 22, 1-(3-methoxycyclobutyl)-8-(1-methyl-1H-pyrazol-4-yl)-1,3-dihydro-2H-imidazo[4,5-c]isoquinolin-2-one], `Cc1c(C2CCN(C)CC2)[nH]c2ncc3ccc(-c4cnn(C)c4)cc3c12` [Compound 42, 1-methyl-8-(1-methyl-1H-pyrazol-4-yl)-2-(1-methylpiperidin-4-yl)-3H-pyrrolo[2,3-c]isoquinoline] is lower in IC50: 100 to 1000 nM for the first, at most 10 nM for the second.

`CNC(=O)C1CCC(c2c[nH]c3ncc4ccc(-c5cnn(C)c5)cc4c23)CC1` (stereo not shown) [Compound 27] and `Cn1cc(-c2ccc3cnc4[nH]cc(C5CCN(S(C)(=O)=O)CC5)c4c3c2)cn1` [Compound 29, 8-(1-methyl-1H-pyrazol-4-yl)-1-(1-(methylsulfonyl)piperidin-4-yl)-3H-pyrrolo[2,3-c]isoquinoline] cannot be ordered by IC50: at most 10 nM for the first, at most 10 nM for the second.

`Cn1c(=O)[nH]c2ncc(-c3ccc4cnsc4c3)cc21` [Compound 30, 6-(benzo[d]isothiazol-6-yl)-1-methyl-1,3-dihydro-2H-imidazo[4,5-b]pyridin-2-one] and `O=c1[nH]c2ncc(-c3ccc4cnsc4c3)cc2n1C1CCC1` [Compound 31, 6-(benzo[d]isothiazol-6-yl)-1-cyclobutyl-1,3-dihydro-2H-imidazo[4,5-b]pyridin-2-one] fall in the same range of IC50: 100 to 1000 nM for the first, 100 to 1000 nM for the second.

`O=C(O)[C@H]1C[C@@H](c2c[nH]c3ncc4ccccc4c32)C1` [Compound 32, (1s,3s)-3-(3H-pyrrolo[2,3-c]isoquinolin-1-yl)cyclobutane-1-carboxylic acid] and `O=C(O)[C@H]1C[C@H](c2c[nH]c3ncc4ccccc4c32)C1` [Compound 33, (1r,3r)-3-(3H-pyrrolo[2,3-c]isoquinolin-1-yl)cyclobutane-1-carboxylic acid] fall in the same range of IC50: 100 to 1000 nM for the first, 100 to 1000 nM for the second.

`O=C(O)C1CC(c2c[nH]c3ncc4ncccc4c23)C1` (stereo not shown) [Compound 34, 3-(3H-pyrrolo[3,2-f][1,7]naphthyridin-1-yl)cyclobutane-1-carboxylic acid] and `O=C(O)[C@H]1C[C@@H](c2c[nH]c3ncc4cccnc4c32)C1` [Compound 36, (1s,3s)-3-(7H-pyrrolo[2,3-h][1,6]naphthyridin-9-yl)cyclobutane-1-carboxylic acid] fall in the same range of IC50: 100 to 1000 nM for the first, 100 to 1000 nM for the second.

Compared with `O=C(O)C1CC(c2c[nH]c3ncc4ccncc4c23)C1` (stereo not shown) [Compound 35, 3-(7H-pyrrolo[2,3-c][2,6]naphthyridin-9-yl)cyclobutane-1-carboxylic acid], `O=C(O)[C@H]1C[C@H](c2c[nH]c3ncc4cccnc4c32)C1` [Compound 37, (1r,3r)-3-(7H-pyrrolo[2,3-h][1,6]naphthyridin-9-yl)cyclobutane-1-carboxylic acid] is lower in IC50: 100 to 1000 nM for the first, 10 to 100 nM for the second. The second is the more potent here.

`Cn1cc(-c2ccc3cnc4c(c(C5CCC5)cn4C)c3c2)cn1` [Compound 38, 1-cyclobutyl-3-methyl-8-(1-methyl-1H-pyrazol-4-yl)-3H-pyrrolo[2,3-c]isoquinoline] and `Cn1cc(-c2ccc3cnc4c(c3c2)c([C@H]2CC[C@@H](C(=O)O)CC2)cn4C)cn1` [Compound 46, 4-(3-methyl-8-(1-methyl-1H-pyrazol-4-yl)-3H-pyrrolo[2,3-c]isoquinolin-1-yl)cyclohexane-1-carboxylic acid] fall in the same range of IC50: 10 to 100 nM for the first, 10 to 100 nM for the second.

`CN1CCC(c2cc3c(ncc4ccc(-c5cnn(C)c5)cc43)[nH]2)CC1` [Compound 40, 8-(1-methyl-1H-pyrazol-4-yl)-2-(1-methylpiperidin-4-yl)-3H-pyrrolo[2,3-c]isoquinoline] and `Cc1c(C2CCNCC2)[nH]c2ncc3ccc(-c4cnn(C)c4)cc3c12` [Compound 41, 1-methyl-8-(1-methyl-1H-pyrazol-4-yl)-2-(piperidin-4-yl)-3H-pyrrolo[2,3-c]isoquinoline] cannot be ordered by IC50: at most 10 nM for the first, at most 10 nM for the second.

Compared with `CN1CCN(c2nccc3c2cnc2[nH]cc(-c4ccncc4)c23)CC1` [Compound 43, 6-(4-methylpiperazin-1-yl)-1-(pyridin-4-yl)-3H-pyrrolo[2,3-c][2, 7]naphthyridine], `CN1CCC(c2nccc3c2cnc2[nH]cc(-c4ccncc4)c23)CC1` [Compound 44, 6-(1-methylpiperidin-4-yl)-1-(pyridin-4-yl)-3H-pyrrolo[2,3-c][2, 7]naphthyridine] is higher in IC50: 10 to 100 nM for the first, 100 to 1000 nM for the second. The first is the more potent here.

For `Cn1cc(-c2ccc3cnc4c(c3c2)c([C@H]2CC[C@H](C(=O)O)CC2)cn4C)cn1` [Compound 47, 4-(3-methyl-8-(1-methyl-1H-pyrazol-4-yl)-3H-pyrrolo[2,3-c]isoquinolin-1-yl)cyclohexane-1-carboxylic acid], the IC50 was at most 10 nM.

Same assay, conditions: Compounds of Formula (II); DYRK1A 1 nM, ATP 20 μM, Ser/Thr 18 peptide 2 μM, 90 minutes; read-out: DYRK1 IC50

Compared with `CN1CCC(c2cc3c(-c4cc5scnc5cn4)ccnc3[nH]2)CC1` [Compound 4], `CN1CCC(c2nc3c(-c4cn(C)c5cnccc45)ccnc3[nH]2)CC1` [Compound 5] is lower in IC50: 100 to 1000 nM for the first, 10 to 100 nM for the second.

Same assay, conditions: Compounds of Formula (III); DYRK1A 1 nM, ATP 20 μM, Ser/Thr 18 peptide 2 μM, 90 minutes; read-out: DYRK1 IC50

Compared with `CN1CCC(C(=O)Nc2ncc(-c3ccc4ncoc4c3)s2)CC1` [Compound 1], `CN1CCC(C(=O)Nc2ncc(-c3ccc4sncc4c3)s2)CC1` [Compound 5] is higher in IC50: 50 to 200 nM for the first, 200 to 1000 nM for the second. The first is the more potent here.

`Cn1ncc2ccc(-c3cnc(C#CC4CCNCC4)s3)cc21` [Compound 7] and `CN1CCC(C#Cc2ncc(-c3ccc4cnn(C)c4c3)s2)CC1` [Compound 8] fall in the same range of IC50: 50 to 200 nM for the first, 50 to 200 nM for the second.

Same assay, conditions: Compounds of Formula (IV); DYRK1A 1 nM, ATP 20 μM, Ser/Thr 18 peptide 2 μM, 90 minutes; read-out: DYRK1 IC50

First: O=c1oc2cc3cnccc3cc2n1CCc1nc2ccccc2[nH]1 [Compound 4]
Second: Cn1ncc2cc3[nH]c(=O)n(-c4cccc(O)c4)c3cc21 [Compound 5]
The IC50 of the first is higher: 1000 to 5000 nM for the first, 500 to 1000 nM for the second. The second is the more potent here.

Compared with `CC(=O)N1CCc2c(cnc3[nH]cc(-c4ccncc4)c23)C1` [Compound 7], `CC(=O)N1CCc2c(cnc3[nH]cc(-c4cccnc4)c23)C1` [Compound 8] is higher in IC50: 500 to 1000 nM for the first, 1000 to 5000 nM for the second. The first is the more potent here.

`CC(=O)N1CCc2c(cnc3[nH]cc(-c4cccc(Cl)c4)c23)C1` [Compound 10] and `CN1CCc2c([nH]c(=O)c3cc(-c4ccnc5c4CCO5)ccc23)C1` [Compound 13] fall in the same range of IC50: 1000 to 5000 nM for the first, 1000 to 5000 nM for the second.

`O=c1[nH]c2cc3c(cc2o1)[nH]c(=O)n3-c1cccc(O)c1` [Compound 11] and `COc1cc(-c2ccc3c4c([nH]c(=O)c3c2)CN(C)CC4)ccc1F` [Compound 12] fall in the same range of IC50: 1000 to 5000 nM for the first, 1000 to 5000 nM for the second.
